Assay results as given in PubChem BioAssay AID1918955 (Molecular Pharmacology Branch, DTP, NCI, 2023).

System: NCI/ADR-RES complex spheroid viability
Assay: Anticancer human tumor NCI/ADR-RES cell line growth inhibition;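 further: spheroids exposed to compounds for 7 days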;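 on viability, T/C: 100% = DMSO vehicle treated spheroids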
Details: for IC50: curve of first compound; for viability, T/C: stronger effect = lower value
Outline: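 Multicellular complex spheroids of tumor cells with human endothelial cells (HUVEC) and mesenchymal stem cells; the LSD1 inhibitor iadademstat was combined with standard-of-care or investigational agents. Top concentration at or near clinical Cmax, half-log dilutions; final DMSO ≤0.25%.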

[1] = second compound 0.1 µM, first compound 0.00316 µM
[2] = second compound 0.1 µM, first compound 0.01 µM
[3] = second compound 0.1 µM, first compound 0.0316 µM
[4] = second compound 0.1 µM, first compound 0.1 µM
[5] = second compound 0.1 µM, first compound 0.316 µM
[6] = second compound 0.1 µM, first compound 1 µM
[7] = second compound 0.316 µM, first compound 0.00316 µM
[8] = second compound 0.316 µM, first compound 0.01 µM
[9] = second compound 0.316 µM, first compound 0.0316 µM
[10] = second compound 0.316 µM, first compound 0.1 µM
[11] = second compound 0.316 µM, first compound 0.316 µM
[12] = second compound 0.316 µM, first compound 1 µM
[13] = second compound 1 µM, first compound 0.00316 µM
[14] = second compound 1 µM, first compound 0.01 µM
[15] = second compound 1 µM, first compound 0.0316 µM
[16] = second compound 1 µM, first compound 0.1 µM
[17] = second compound 1 µM, first compound 0.316 µM
[18] = second compound 1 µM, first compound 1 µM
[19] = second compound 3.16 µM, first compound 0.00316 µM
[20] = second compound 3.16 µM, first compound 0.01 µM
[21] = second compound 3.16 µM, first compound 0.0316 µM
[22] = second compound 3.16 µM, first compound 0.1 µM
[23] = second compound 3.16 µM, first compound 0.316 µM
[24] = second compound 3.16 µM, first compound 1 µM
[25] = second compound 10 µM, first compound 0.00316 µM
[26] = second compound 10 µM, first compound 0.01 µM
[27] = second compound 10 µM, first compound 0.0316 µM
[28] = second compound 10 µM, first compound 0.1 µM
[29] = second compound 10 µM, first compound 0.316 µM
[30] = second compound 10 µM, first compound 1 µM
[31] = second compound 0.1 µM, first compound 0.00949 µM
[32] = second compound 0.1 µM, first compound 0.03 µM
[33] = second compound 0.1 µM, first compound 0.0949 µM
[34] = second compound 0.1 µM, first compound 0.3 µM
[35] = second compound 0.316 µM, first compound 0.00949 µM
[36] = second compound 0.316 µM, first compound 0.03 µM
[37] = second compound 0.316 µM, first compound 0.0949 µM
[38] = second compound 0.316 µM, first compound 0.3 µM
[39] = second compound 1 µM, first compound 0.00949 µM
[40] = second compound 1 µM, first compound 0.03 µM
[41] = second compound 1 µM, first compound 0.0949 µM
[42] = second compound 1 µM, first compound 0.3 µM
[43] = second compound 3.16 µM, first compound 0.00949 µM
[44] = second compound 3.16 µM, first compound 0.03 µM
[45] = second compound 3.16 µM, first compound 0.0949 µM
[46] = second compound 3.16 µM, first compound 0.3 µM
[47] = second compound 10 µM, first compound 0.00949 µM
[48] = second compound 10 µM, first compound 0.03 µM
[49] = second compound 10 µM, first compound 0.0949 µM
[50] = second compound 10 µM, first compound 0.3 µM

CC1COCCN1c1cc(-c2ccnn2C)c2ccnc(-c3ccn[nH]3)c2n1 (stereo not given) + NC1CC1c1ccc(-c2cccc(O)c2)cc1
IC50 (second compound 0.1 µM): 11.8 nM
IC50 (second compound 0.316 µM): 13.6 nM
IC50 (second compound 1 µM): 12.3 nM
IC50 (second compound 3.16 µM): 12.6 nM
IC50 (second compound 10 µM): 13 nM
viability, T/C [1]: 94.5%
viability, T/C [2]: 56.5%
viability, T/C [3]: 11.9%
viability, T/C [4]: 2.87%
viability, T/C [5]: 1.82%
viability, T/C [6]: 1.99%
viability, T/C [7]: 93.9%
viability, T/C [8]: 63.8%
viability, T/C [9]: 11.9%
viability, T/C [10]: 2.5%
viability, T/C [11]: 2.17%
viability, T/C [12]: 2.31%
viability, T/C [13]: 95.2%
viability, T/C [14]: 57.5%
viability, T/C [15]: 16.2%
viability, T/C [16]: 2.46%
viability, T/C [17]: 1.61%
viability, T/C [18]: 1.71%
viability, T/C [19]: 92.3%
viability, T/C [20]: 58.4%
viability, T/C [21]: 16.9%
viability, T/C [22]: 2.63%
viability, T/C [23]: 1.85%
viability, T/C [24]: 2.16%
viability, T/C [25]: 75.9%
viability, T/C [26]: 58.6%
viability, T/C [27]: 20.3%
viability, T/C [28]: 4.64%
viability, T/C [29]: 2.38%
viability, T/C [30]: 2.48%

CC1COCCN1c1cc(C2(S(C)(=N)=O)CC2)nc(-c2ccnc3[nH]ccc23)n1 (stereo not given) + NC1CC1c1ccc(-c2cccc(O)c2)cc1
IC50 (second compound 0.1 µM): 7000 nM
IC50 (second compound 0.316 µM): 9410 nM
IC50 (second compound 1 µM): 6180 nM
IC50 (second compound 3.16 µM): 6480 nM
IC50 (second compound 10 µM): 5360 nM
viability, T/C [3]: 108%
viability, T/C [4]: 108%
viability, T/C [5]: 97.4%
viability, T/C [6]: 90%
viability, T/C (second compound 0.1 µM, first compound 3.16 µM): 71.5%
viability, T/C (second compound 0.1 µM, first compound 10 µM): 40.4%
viability, T/C [9]: 110%
viability, T/C [10]: 104%
viability, T/C [11]: 103%
viability, T/C [12]: 91.8%
viability, T/C (second compound 0.316 µM, first compound 3.16 µM): 73.2%
viability, T/C (second compound 0.316 µM, first compound 10 µM): 48.7%
viability, T/C [15]: 96.4%
viability, T/C [16]: 97.4%
viability, T/C [17]: 93.8%
viability, T/C [18]: 90.1%
viability, T/C (second compound 1 µM, first compound 3.16 µM): 64.8%
viability, T/C (second compound 1 µM, first compound 10 µM): 39.4%
viability, T/C [21]: 101%
viability, T/C [22]: 95.1%
viability, T/C [23]: 95.8%
viability, T/C [24]: 86%
viability, T/C (second compound 3.16 µM, first compound 3.16 µM): 65.4%
viability, T/C (second compound 3.16 µM, first compound 10 µM): 40.6%
viability, T/C [27]: 93.2%
viability, T/C [28]: 94.1%
viability, T/C [29]: 84.9%
viability, T/C [30]: 71.6%
viability, T/C (second compound 10 µM, first compound 3.16 µM): 61.3%
viability, T/C (second compound 10 µM, first compound 10 µM): 38.5%

CCN(c1cc(-c2ccc(CN3CCOCC3)cc2)cc(C(=O)NCc2c(C)cc(C)[nH]c2=O)c1C)C1CCOCC1 + NC1CC1c1ccc(-c2cccc(O)c2)cc1
IC50 (second compound 0.1 µM): > 3000 nM
IC50 (second compound 0.316 µM): > 3000 nM
IC50 (second compound 1 µM): > 3000 nM
IC50 (second compound 3.16 µM): > 3000 nM
IC50 (second compound 10 µM): > 3000 nM
viability, T/C [31]: 102%
viability, T/C [32]: 104%
viability, T/C [33]: 104%
viability, T/C [34]: 106%
viability, T/C (second compound 0.1 µM, first compound 0.949 µM): 94.2%
viability, T/C (second compound 0.1 µM, first compound 3 µM): 88.9%
viability, T/C [35]: 104%
viability, T/C [36]: 102%
viability, T/C [37]: 104%
viability, T/C [38]: 103%
viability, T/C (second compound 0.316 µM, first compound 0.949 µM): 105%
viability, T/C (second compound 0.316 µM, first compound 3 µM): 95.5%
viability, T/C [39]: 92.1%
viability, T/C [40]: 96.3%
viability, T/C [41]: 104%
viability, T/C [42]: 90.2%
viability, T/C (second compound 1 µM, first compound 0.949 µM): 93.4%
viability, T/C (second compound 1 µM, first compound 3 µM): 87.7%
viability, T/C [43]: 93%
viability, T/C [44]: 99%
viability, T/C [45]: 95.3%
viability, T/C [46]: 94.9%
viability, T/C (second compound 3.16 µM, first compound 0.949 µM): 90.2%
viability, T/C (second compound 3.16 µM, first compound 3 µM): 81.8%
viability, T/C [47]: 92.6%
viability, T/C [48]: 87.8%
viability, T/C [49]: 91.8%
viability, T/C [50]: 86.7%
viability, T/C (second compound 10 µM, first compound 0.949 µM): 82.7%
viability, T/C (second compound 10 µM, first compound 3 µM): 79%

Nc1ncn(C2CC(O)C(CO)S2)c(=O)n1 (stereo not given) + NC1CC1c1ccc(-c2cccc(O)c2)cc1
IC50 (second compound 0.1 µM): 7.4 nM
IC50 (second compound 0.316 µM): 7.52 nM
IC50 (second compound 1 µM): 6.82 nM
IC50 (second compound 3.16 µM): 5.54 nM
IC50 (second compound 10 µM): 4.48 nM
viability, T/C (second compound 0.1 µM, first compound 0.000949 µM): 89.3%
viability, T/C (second compound 0.1 µM, first compound 0.003 µM): 66%
viability, T/C [31]: 44.7%
viability, T/C [32]: 29.6%
viability, T/C [33]: 11.8%
viability, T/C [34]: 2.46%
viability, T/C (second compound 0.316 µM, first compound 0.000949 µM): 91.2%
viability, T/C (second compound 0.316 µM, first compound 0.003 µM): 62.5%
viability, T/C [35]: 47.8%
viability, T/C [36]: 30.6%
viability, T/C [37]: 9.77%
viability, T/C [38]: 2.75%
viability, T/C (second compound 1 µM, first compound 0.000949 µM): 88.4%
viability, T/C (second compound 1 µM, first compound 0.003 µM): 68%
viability, T/C [39]: 41.2%
viability, T/C [40]: 25.5%
viability, T/C [41]: 9.64%
viability, T/C [42]: 2.79%
viability, T/C (second compound 3.16 µM, first compound 0.000949 µM): 85.4%
viability, T/C (second compound 3.16 µM, first compound 0.003 µM): 58.3%
viability, T/C [43]: 43%
viability, T/C [44]: 24.6%
viability, T/C [45]: 9.31%
viability, T/C [46]: 2.63%
viability, T/C (second compound 10 µM, first compound 0.000949 µM): 77%
viability, T/C (second compound 10 µM, first compound 0.003 µM): 54%
viability, T/C [47]: 38.6%
viability, T/C [48]: 26.2%
viability, T/C [49]: 11.8%
viability, T/C [50]: 3.24%

O=C(C=Cn1cnc(-c2cc(C(F)(F)F)cc(C(F)(F)F)c2)n1)NNc1cnccn1 + NC1CC1c1ccc(-c2cccc(O)c2)cc1
IC50 (second compound 0.1 µM): 4.7 nM
IC50 (second compound 0.316 µM): 4.42 nM
IC50 (second compound 1 µM): 4.18 nM
IC50 (second compound 3.16 µM): 4.79 nM
IC50 (second compound 10 µM): 4.02 nM
viability, T/C [1]: 65.4%
viability, T/C [2]: 19.6%
viability, T/C [3]: 13%
viability, T/C [4]: 6.61%
viability, T/C [5]: 1.72%
viability, T/C [6]: 0.88%
viability, T/C [7]: 60.6%
viability, T/C [8]: 23.3%
viability, T/C [9]: 12.6%
viability, T/C [10]: 7.91%
viability, T/C [11]: 2.06%
viability, T/C [12]: 1.08%
viability, T/C [13]: 59.5%
viability, T/C [14]: 20.4%
viability, T/C [15]: 13.9%
viability, T/C [16]: 8.19%
viability, T/C [17]: 1.99%
viability, T/C [18]: 0.85%
viability, T/C [19]: 64.2%
viability, T/C [20]: 22.7%
viability, T/C [21]: 16.5%
viability, T/C [22]: 10.7%
viability, T/C [23]: 2.96%
viability, T/C [24]: 0.98%
viability, T/C [25]: 57.1%
viability, T/C [26]: 22.1%
viability, T/C [27]: 16%
viability, T/C [28]: 10.1%
viability, T/C [29]: 5.13%
viability, T/C [30]: 2.52%
